Reference: US20020049223A1, “Quinoline and naphthyridine carboxylic acid antibacterials” (priority 1999, published 2002)

Columns and labels:
[1] = system: Streptococcus pneumoniae ATCC 6303; experiment: Assay A: in vitro antibacterial activity, agar dilution MIC; type: cell-based; settings: Table 1, Assay A, BHI agar, 35-37° C., about 20 to 24 hours; code F = Streptococcus pneumoniae ATCC 6303; unit assumed
Procedure: (§1) Assay A. Determination of Biological Activity In Vitro Assay of Antibacterial Activity
(§2) Representative compounds of the invention were assayed in vitro for antibacterial activity. Twelve petri dishes containing successive aqueous dilutions of the test compound mixed with sterilized Brain Heart Infusion (BHI) agar (Difco 0418-01-5) (10 mL) were prepared. Each plate was inoculated with 1:100 (or 1:10 for slow-growing strains, such as Micrococcus and Streptococcus) dilutions of up to 32 different microorganisms using a Steers replicator block. The inoculated plates were incubated at 35-37° C. for about 20 to about 24 hours. In addition, a control plate with BHI agar and no test compound was prepared and incubated at the beginning and end of each test.
(§3) An additional plate containing a compound having known susceptibility patterns for the organisms being tested and belonging to the same antibiotic class as the test compound was also prepared and incubated as a further control and to provide test-to-test comparability. Ciprofloxacin was used for this purpose.
(§4) After incubation, each plate was visually inspected. The minimum inhibitory concentration (MIC) was defined as the lowest concentration of drug yielding no growth, a slight haze, or sparsely isolated colonies on the inoculum spot as compared to the growth control.

Escherichia coli JUHL [2] = experiment: as above; type: cell-based; settings: Table 1, Assay A, BHI agar, 35-37° C., about 20 to 24 hours; code D = Escherichia coli JUHL; unit assumed
Procedure: as §1, §2, §3, §4

[3] = system: Staphylococcus aureus ATCC 6538P; experiment: as above; type: cell-based; settings: Table 1, Assay A, BHI agar, 35-37° C., about 20 to 24 hours; code A = Staphylococcus aureus ATCC 6538P; unit assumed
Procedure: as §1, §2, §3, §4

[4] = system: Haemophilus influenzae DILL AMP R; experiment: as above; type: cell-based; settings: Table 1, Assay A, BHI agar, 35-37° C., about 20 to 24 hours; code E = Haemophilus influenzae DILL AMP R; unit assumed
Procedure: as §1, §2, §3, §4

[5] = system: Enterococcus faecalis PIU 1967; experiment: as above; type: cell-based; settings: Table 1, Assay A, BHI agar, 35-37° C., about 20 to 24 hours; code B = Enterococcus faecalis PIU 1967; unit assumed
Procedure: as §1, §2, §3, §4

[6] = system: Moraxella catarrahalis 2604; experiment: as above; type: cell-based; settings: Table 1, Assay A, BHI agar, 35-37° C., about 20 to 24 hours; code C = Moraxella catarrahalis 2604; unit assumed
Procedure: as §1, §2, §3, §4

[7] = system: Streptococcus pneumoniae ATCC 6303; experiment: Assay B: in vitro antibacterial activity, broth microdilution MIC (NCCLS); type: cell-based; settings: Table 2, Assay B, Mueller Hinton broth with 3% lysed horse blood, 20 to 24 hr; code F = Streptococcus pneumoniae ATCC 6303; unit assumed
How it was run: (§5)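 NCCLS broth microdilution with two-fold dilutions in cation-adjusted Mueller Hinton broth, inoculum about 5×10^5 CFU/mL, 35 °C in ambient air for 16-20 h; MIC read visually as lowest concentration completely inhibiting growth. S. pneumoniae: 3% lysed horse blood, 20-24 h; H. influenzae: 5 g/L yeast extract, 0.3 mmol/L hematin, 15 mg/L NAD, 20-24 h.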

Escherichia coli JUHL [8] = experiment: as above; type: cell-based; settings: Table 2, Assay B, cation-adjusted Mueller Hinton broth, 35° C., 16 to 20 hr; code D = Escherichia coli JUHL; unit assumed
How it was run: as §5

[9] = system: Staphylococcus aureus ATCC 6538P; experiment: as above; type: cell-based; settings: Table 2, Assay B, cation-adjusted Mueller Hinton broth, 35° C., 16 to 20 hr; code A = Staphylococcus aureus ATCC 6538P; unit assumed
How it was run: as §5

[10] = system: Haemophilus influenzae DILL AMP R; experiment: as above; type: cell-based; settings: Table 2, Assay B, Mueller Hinton broth with yeast extract, hematin and NAD, 20 to 24 hr; code E = Haemophilus influenzae DILL AMP R; unit assumed
How it was run: as §5

[11] = system: Enterococcus faecalis PIU 1967; experiment: as above; type: cell-based; settings: Table 2, Assay B, cation-adjusted Mueller Hinton broth, 35° C., 16 to 20 hr; code B = Enterococcus faecalis PIU 1967; unit assumed
How it was run: as §5

Structure (SMILES) | Antibacterial Activity (MIC's), F [1] | Antibacterial Activity (MIC's), D (Escherichia coli JUHL [2]) | Antibacterial Activity (MIC's), A [3] | Antibacterial Activity (MIC's), E [4] | Antibacterial Activity (MIC's), B [5] | Antibacterial Activity (MIC's), C [6] | melting point | Antibacterial Activity (MIC's), F [7] | Antibacterial Activity (MIC's), D (Escherichia coli JUHL [8]) | Antibacterial Activity (MIC's), A [9] | Antibacterial Activity (MIC's), E [10] | Antibacterial Activity (MIC's), B [11]
Br.CC1Cc2sc(-c3ccc4c(=O)c(C(=O)O)cn(C5CC5)c4c3)cc2CN1 (stereo not drawn) [Example 13, 1-cyclopropyl-7-(6-methyl-4,5,6,7-tetrahydrothieno[3,2-c]pyridin-2-yl)-4-oxo-1,4-dihydro-3-quinolinecarboxylic acid hydrobromide] | 0.25 µg/mL | 0.2 µg/mL | 0.1 µg/mL | 0.25 µg/mL | 0.2 µg/mL | 0.2 µg/mL | – | – | – | – | – | –
Br.CC1(C)CNCc2cc(-c3ccc4c(=O)c(C(=O)O)cn(C5CC5)c4c3OC(F)F)sc21 [Example 28] | 1 µg/mL | 0.78 µg/mL | 0.2 µg/mL | 0.25 µg/mL | 0.78 µg/mL | 0.2 µg/mL | – | – | – | – | – | –
CC1CNCc2sc(-c3ccc4c(=O)c(C(=O)O)cn(C5CC5)c4n3)cc21.Cl (stereo not drawn) [Example 32, 1-cyclopropyl-7-(4-methyl-4,5,6,7-tetrahydrothieno(2,3-c)pyrdin-2-yl)-4-oxo-1,4-dihydro[1,8]naphthyridine-3-carboxylic acid hydrochloride] | 1 µg/mL | 0.39 µg/mL | 0.2 µg/mL | 0.25 µg/mL | 0.39 µg/mL | 0.2 µg/mL | – | – | – | – | – | –
O=C(O)c1cn(C2CC2)c2nc(-c3cc4c(s3)CCCC4O)c(F)cc2c1=O (stereo not drawn) [Example 35, 1-cyclopropyl-6-fluoro-7-(4-hydroxy-4,5,6,7-tetrahydro-1-benzothien-2-yl)-4-oxo-1,4-dihydro[1,8]naphthyridine-3-carboxylic acid] | 0.5 µg/mL | 0.78 µg/mL | 0.05 µg/mL | 0.06 µg/mL | 0.78 µg/mL | 0.05 µg/mL | – | – | – | – | – | –
COc1c(-c2cc3c(s2)SCCC3N)ccc2c(=O)c(C(=O)O)cn(C3CC3)c12.Cl (stereo not drawn) [Example 37, 7-(4-amino-5,6-dihydro-4H-thieno[2,3-b]thiopyran-2-yl)-1-cyclopropyl-8-methoxy-4-oxo-1,4-dihydro-3-quinolinecarboxylic acid hydrochloride] | 0.25 µg/mL | 0.2 µg/mL | 0.05 µg/mL | 0.125 µg/mL | 0.1 µg/mL | 0.1 µg/mL | – | – | – | – | – | –
COc1c(-c2cc3c(s2)CC(O)C3)ccc2c(=O)c(C(=O)O)cn(C3CC3)c12 (stereo not drawn) [Example 45, 1-cyclopropyl-7-(5-hydroxy-5,6-dihydro-4H-cyclopentarblthien-2-yl)-8-methoxM-4-oxo-1,4-dihydro-3-quinolinecarboxylic acid] | 0.25 µg/mL | 0.39 µg/mL | 0.05 µg/mL | 0.03 µg/mL | 0.2 µg/mL | 0.1 µg/mL | – | – | – | – | – | –
COc1c(-c2cc3c(s2)CC(O)CC3)ccc2c(=O)c(C(=O)O)cn(C3CC3)c12 (stereo not drawn) [Example 47, 1-cyclopropyl-7-(6-hydroxy-4,5,6,7-tetrahydro-1-benzothien-2-yl)-8-methoxy-4-oxo-1,4-dihydro-3-quinolinecarboxylic acid] | 0.5 µg/mL | 1.56 µg/mL | 0.01 µg/mL | 0.5 µg/mL | 0.2 µg/mL | 0.02 µg/mL | – | – | – | – | – | –
O=C1CCCc2sc(-c3nc4c(cc3F)c(=O)c(C(=O)O)cn4C3CC3)cc21 [Example 48, 1-cyclopropyl-6-fluoro-4-oxo-7-(4-oxo-4,5,6,7-tetrahydro-1-benzothien-2-yl)-1,4-dihydro[1,8]naphthyridine-3-carboxylic acid] | 0.25 µg/mL | 0.78 µg/mL | 0.02 µg/mL | 0.06 µg/mL | 0.2 µg/mL | 0.02 µg/mL | – | – | – | – | – | –
O=C(O)c1cn(C2CC2)c2nc(-c3cc4c(s3)CCC/C4=N\O)c(F)cc2c1=O [Example 49, 1-cyclopropyl-6-fluoro-7-((4E)-4-(hydroxyimino)-4,5,6,7-tetrahydro-1-benzothien-2-yl)-4-oxo-1,4-dihydro[1,8]naphthyridine-3-carboxylic acid] | 0.25 µg/mL | 0.78 µg/mL | 0.05 µg/mL | 0.06 µg/mL | 0.39 µg/mL | 0.05 µg/mL | – | – | – | – | – | –
COc1c(-c2cc3c(s2)CCC(C)(C)C3O)ccc2c(=O)c(C(=O)O)cn(C3CC3)c12 (stereo not drawn) [Example 213, 1-cyclopropyl-7-(4-hydroxy-5,5-dimethyl-4,5,6,7-tetrahydro-1-benzothien-2-yl)-8-methoxy-4-oxo-1,4-dihydro-3-quinolinecarboxylic acid] | – | – | – | – | – | – | 93 to 94 °C | 0.5 µg/mL | 0.5 µg/mL | 0.03 µg/mL | 0.25 µg/mL | 0.5 µg/mL
COc1c(-c2cc3c(s2)C(N)CCC3)c(F)cc2c(=O)c(C(=O)O)cn(C3CC3)c12.Cl (stereo not drawn) [Example 228, 7-(7-amino-4,5,6,7-tetrahydro-1-benzothien-2-yl)-1-cyclopropyl-6-fluoro-8-methoxy-4-oxo-1,4-dihydro-3-quinolinecarboxylic acid hydrochloride] | – | – | – | – | – | – | 148 to 153 °C (dec.) | 0.015 µg/mL | 0.06 µg/mL | 0.008 µg/mL | 0.015 µg/mL | 0.03 µg/mL
COc1c(-c2cc3c(s2)CCC(C)(C)/C3=N\O)ccc2c(=O)c(C(=O)O)cn(C3CC3)c12 [Example 233, 1-cyclopropyl-7-((4E/Z)-4-(hydroxyimino)-5,5-dimethyl-4,5,6,7-tetrahydro-1-benzothien-2-yl)-8-methoxy-4-oxo-1,4-dihydro-3-quinolinecarboxylic acid] | – | – | – | – | – | – | 135 to 138 °C | 2 µg/mL | 8 µg/mL | 0.03 µg/mL | 0.5 µg/mL | 0.5 µg/mL
